Source: USRE37781E1, “Substituted cyclic carbonyls and derivatives thereof useful as retroviral protease inhibitors” (DuPont Pharmaceuticals Company, priority 1991, dated 2002)
Where two headings read alike, the source gives them in different places.

Target: single-chain tethered dimer of HIV protease (Human immunodeficiency virus 1, UniProt P04585)
Experiment: biochemical
Assay type: biochemical
Design: fused on or other part: A second copy of the same protease unit is joined to the first by a short peptide tether, giving one polypeptide
Experimental: HIV Protease Inhibition Assay—HPLC Method
Active protease was prepared as described therein by extraction with 67% acetic acid, dilution 33-fold with water, dialysis against water and then against a “refolding buffer” consisting of 20 mM MES, 1 mM dithiothreitol and 10% glycerol. Protease was stored as a stock preparation at 10 uM in refolding buffer.
Substrate: Peptide of sequence: aminobenzoyl-Ala-Thr-His-Gln-Val-Tyr-Phe(NO2)-Val-Arg-Lys-Ala containing p-nitrophenylalanine, was prepared by solid phase synthesis as previously described Cheng et al., op.cit. Stock solutions of 2 mM substrate were prepared in DMSO.
Inhibitory compounds were dissolved in sufficient DMSO to make 3 mM stock solutions. All further dilutions were prepared in “assay buffer”: 1M NaCl, 50 mM MES, pH 5.5, 1 mM EDTA, 1 mM DTT, […] glycerol.
Enzyme reaction: In a 2 ml screw-cap centrifuge tube were added 50 ul protease (final concentration 0.25 nM) and 0.1 ml inhibitory compound (final concentration […]). After 15 min preincubation at room temperature, the reaction was started with the addition of 0.05 ml substrate (final concentration 5 uM). Incubation was carried out at 30 C. for 1 hr. The reaction was stopped with 1 ml 0.1M ammonium hydroxide.
HPLC measurement of product formation: The product (aminobenzoyl-Ala-Thr-His-Gln-Val-Tyr) was separated from substrate on a Pharmacia MonoQ anion exchange column. The injection volume was 0.2 ml. The mobile phases were: A (20 mM trisHCl, pH 9.0, 0.02% sodium Azide, 10% acetonitrile), B (20 mM tris HCl, pH 9.0, 0.02% sodium azide, 0.5M ammonium formate, 10% acetonitrile). The mobile phases were pumped at 1 ml/min, with a gradient from 0 to 30% B in 5 min, 100% B for 4 min to wash the column, and a re-equilibration for 4 min. The retention time of the product was 3.6 min. Detection with a Shimadzu model RF535 fluorescence monitor was at 330 nm (excitation) and 430 (emission).

[1] = read-out: HPLC Ki, Table 1d, lower part
[2] = read-out: HPLC K1, HIV protease inhibition, HPLC method, Table 2d
[3] = Table 2d, class symbols, read-out: HPLC K1
[4] = Table 2d, HIV protease inhibition, HPLC method, read-out: HPLC K1
[5] = read-out: HPLC K1, Table 2d, class symbols
[6] = HIV protease inhibition, HPLC method, Table 2d, read-out: HPLC K1

COc1ccc(CC2C(O)C(O)C(Cc3ccc(OC)cc3)N(CC3CC3)C(=O)N2CC2CC2)cc1 (stereo not drawn) [20AF]
Ki (Table 2i, read-out: HPLC Ki): < 0.01 µM

C=CCN1C(=O)N(CC=C)C(C)C(O)C(O)C1C (stereo not drawn) [Example 16E]
Ki (read-out: K4 HPLC, Table 2e): > 1 µM

COC1C(OC)C(Cc2ccccc2)N(CC2CC2)C(=O)N(CC2CC2)C1Cc1ccccc1 (stereo not drawn) [Example 7AF]
Ki [1]: > 1 µM

O=C1N(CC2CC2)C(Cc2ccccc2)C(OCc2ccccc2)C(OCc2ccccc2)C(Cc2ccccc2)N1CC1CC1 (stereo not drawn) [Example 7AG]
Ki [1]: > 1 µM

NC(=NO)c1cccc(CN2C(=O)N(Cc3cccc(C(N)=NO)c3)C(Cc3cccs3)C(O)C(O)C2Cc2cccs2)c1 (stereo not drawn) [16P]
Ki (Table 2e, read-out: K4 HPLC): < 0.01 µM

CCCCCCN1C(=O)N(CCCCCC)C(C(C)C)C(O)C(O)C1C(C)C (stereo not drawn) [Example 16X]
Ki (Table 2e, read-out: K4 HPLC): < 0.01 µM

O=C1N(CC2CC2)C(Cc2ccccc2)C(=NO)C(O)C(Cc2ccccc2)N1CC1CC1 (stereo not drawn) [Example 7AB]
Ki [1]: > 1 µM

O=C1N(CCCCCn2cccn2)C(Cc2ccccc2)C(O)C(O)C(Cc2ccccc2)N1CCCCCn1cccn1 (stereo not drawn) [15FL]
Ki [2]: > 1 µM

COc1ccc(CC2C(O)C(O)C(Cc3ccc(OC)cc3)N(Cc3ccc(CO)cc3)C(=O)N2Cc2ccc(CO)cc2)cc1 (stereo not drawn) [20AJ]
Ki (Table 2i, read-out: HPLC Ki): < 0.01 µM

O=C1N(Cc2ccccc2)[C@H](Cc2ccc(O)cc2)[C@H](O)[C@@H](O)[C@@H](Cc2ccc(O)cc2)N1Cc1ccccc1 [20AK]
Ki (Table 2i, read-out: HPLC Ki): < 0.01 µM

CON=C1C(O)C(Cc2ccccc2)N(CC2CC2)C(=O)N(CC2CC2)C1Cc1ccccc1 (stereo not drawn) [Example 7AC]
Ki [1]: 0.01 to 1 µM

C=CCCCC1C(O)C(O)C(CCCC=C)N(Cc2ccccc2)C(=O)N1Cc1ccccc1 (stereo not drawn) [Example 16AL]
Ki (Table 2e, read-out: K4 HPLC): > 1 µM

O=C1N(CC2CC2(c2ccccc2)c2ccccc2)C(Cc2ccccc2)C(O)C(O)C(Cc2ccccc2)N1CC1CC1(c1ccccc1)c1ccccc1 (stereo not drawn) [Example 14F]
Ki [3]: 0.01 to 1 µM

O=C(NC(Cc1ccccc1)C(=O)Nc1cccc(CN2C(=O)N(Cc3cccc(NC(=O)C(Cc4ccccc4)NC(=O)OCc4ccccc4)c3)C(Cc3ccccc3)C(O)C(O)C2Cc2ccccc2)c1)OCc1ccccc1 (stereo not drawn) [15T]
Ki [3]: < 0.01 µM

COc1cccc(CN2C(=O)N(Cc3cccc(OC)c3)C(Cc3ccccc3OC)C(O)C(O)C2Cc2ccccc2OC)c1 (stereo not drawn) [Example 16R]
Ki (Table 2e, read-out: K4 HPLC): 0.01 to 1 µM

CCCCN1C(=O)N(CCCC)C(CC(C)C)C(O)C(O)C1CC(C)C (stereo not drawn) [Example 16AE]
Ki (read-out: K4 HPLC, Table 2e): 0.01 to 1 µM

CNc1noc2ccc(CN3C(=O)N(Cc4ccc5onc(NC)c5c4)C(Cc4ccccc4)C(O)C(O)C3Cc3ccccc3)cc12 (stereo not drawn) [15DK]
Ki [4]: < 0.01 µM

C=CCN1C(=O)N(CC=C)C(CCc2ccccc2)C(O)C(O)C1CCc1ccccc1 (stereo not drawn) [Example 16B]
Ki (read-out: K4 HPLC, Table 2e): > 1 µM

CC(C)CC1C(O)C(O)C(CC(C)C)N(CC2CC2)C(=O)N1CC1CC1 (stereo not drawn) [Example 16J]
Ki (Table 2e, read-out: K4 HPLC): < 0.01 µM

COC1C(O)C(Cc2ccccc2)N(CC2CC2)C(=O)N(CC2CC2)C1Cc1ccccc1 (stereo not drawn) [Example 7AE]
Ki [1]: 0.01 to 1 µM

O=C1N(CC2CC2CO)C(Cc2ccccc2)C(O)C(O)C(Cc2ccccc2)N1CC1CC1CO (stereo not drawn) [Example 12L]
Ki [3]: > 1 µM

O=C1N(CC2CC2)C(Cc2ccc(F)cc2)C(O)C(O)C(Cc2ccc(F)cc2)N1CC1CC1 (stereo not drawn) [20H]
Ki (read-out: HPLC Ki, Table 2i): < 0.01 µM

C=CCOC1C(O)C(Cc2ccccc2)N(CC2CC2)C(=O)N(CC2CC2)C1Cc1ccccc1 (stereo not drawn) [Example 7AJ]
Ki [1]: 0.01 to 1 µM

CC(C)C1C(O)C(O)C(C(C)C)N(CC2CC2)C(=O)N1CC1CC1 (stereo not drawn) [Example 16D]
Ki (read-out: K4 HPLC, Table 2e): 0.01 to 1 µM

O=C1N(c2ccccc2)C(Cc2ccccc2)C(O)C(O)C(Cc2ccccc2)N1c1ccccc1 (stereo not drawn) [Example 14G]
Ki [5]: 0.01 to 1 µM

O=C1N(Cc2ccccc2)C(Cc2c[nH]c3ccccc23)C(O)C(O)C(Cc2c[nH]c3ccccc23)N1Cc1ccccc1 (stereo not drawn) [Example 16Y]
Ki (Table 2e, read-out: K4 HPLC): 0.01 to 1 µM

O=C1N(Cc2ccccc2)C(CCc2ccccc2)C(O)C(O)C(CCc2ccccc2)N1Cc1ccccc1 (stereo not drawn) [Example 16A]
Ki (read-out: K4 HPLC, Table 2e): 0.01 to 1 µM

O=C1N(Cc2ccccc2)C(Cc2ccccc2)C(O)C(O)C(Cc2ccccc2)N1Cc1ccccc1 (stereo not drawn) [Example 13Q]
Ki [5]: > 1 µM

O=C1NC(Cc2ccccc2)C(O)C(O)C(Cc2ccccc2)N1CC1CC1CCO (stereo not drawn) [Example 12Z]
Ki [3]: 0.01 to 1 µM

C=CCCC1C(O)C(O)C(CCC=C)N(Cc2ccccc2)C(=O)N1Cc1ccccc1 (stereo not drawn) [Example 16AK]
Ki (Table 2e, read-out: K4 HPLC): > 1 µM

O=C1N(Cc2ccccc2)C(Cc2ccc3ccccc3c2)C(O)C(O)C(Cc2ccc3ccccc3c2)N1Cc1ccccc1 (stereo not drawn) [16K]
Ki (Table 2e, read-out: K4 HPLC): < 0.01 µM

CCCCCC#CCN1C(=O)N(CC#CCCCCC)C(Cc2ccccc2)C(O)C(O)C1Cc1ccccc1 (stereo not drawn) [Example 14E]
Ki [5]: 0.01 to 1 µM

O=C1N(CC2CC2c2ccccc2)C(Cc2ccccc2)C(O)C(O)C(Cc2ccccc2)N1CC1CC1c1ccccc1 (stereo not drawn) [Example 14H]
Ki [3]: 0.01 to 1 µM

CSc1ccc(CC2C(O)C(O)C(Cc3ccc(SC)cc3)N(Cc3ccccc3)C(=O)N2Cc2ccccc2)cc1 (stereo not drawn) [Example 16Q]
Ki (Table 2e, read-out: K4 HPLC): < 0.01 µM

O=C1N(Cc2ccc(CO)o2)C(Cc2ccccc2)C(O)C(O)C(Cc2ccccc2)N1Cc1ccc(CO)o1 (stereo not drawn) [15FY]
Ki [6]: 0.01 to 1 µM

CC(N)C(=O)Nc1cccc(CN2C(=O)N(Cc3cccc(NC(=O)C(C)N)c3)C(Cc3ccccc3)C(O)C(O)C2Cc2ccccc2)c1 (stereo not drawn) [15U]
Ki [3]: < 0.01 µM

O=C1N(Cc2ccc(CO)cc2)C(Cc2ccc(F)cc2)C(O)C(O)C(Cc2ccc(F)cc2)N1Cc1ccc(CO)cc1 (stereo not drawn) [20I]
Ki (Table 2i, read-out: HPLC Ki): < 0.01 µM

CCCCC1C(O)C(O)C(CCCC)N(Cc2ccc(CO)cc2)C(=O)N1Cc1ccc(CO)cc1 (stereo not drawn) [Example 16AT]
Ki (Table 2e, read-out: K4 HPLC): 0.01 to 1 µM

CSCCC1C(O)C(O)C(CCSC)N(Cc2ccccc2)C(=O)N1Cc1ccccc1 (stereo not drawn) [Example 16AA]
Ki (Table 2e, read-out: K4 HPLC): > 1 µM

O=C1NC(Cc2ccccc2)C(O)C(O)C(Cc2ccccc2)N1CC1CC1c1ccccc1 (stereo not drawn) [Example 14I]
Ki [3]: 0.01 to 1 µM

COc1ccccc1CC1C(O)C(O)C(Cc2ccccc2OC)N(CC2CC2)C(=O)N1CC1CC1 (stereo not drawn) [Example 16S]
Ki (Table 2e, read-out: K4 HPLC): 0.01 to 1 µM

O=C1N(CC2CC2)C(Cc2ccccc2)c2ncoc2C(Cc2ccccc2)N1CC1CC1 (stereo not drawn) [Example 7AD]
Ki [1]: 0.01 to 1 µM

C=CCN1C(=O)N(CC=C)C(CCCCCC)C(O)C(O)C1CCCCCC (stereo not drawn) [Example 16AQ]
Ki (Table 2e, read-out: K4 HPLC): > 1 µM

NC(Cc1ccccc1)C(=O)Nc1cccc(CN2C(=O)N(Cc3cccc(NC(=O)C(N)Cc4ccccc4)c3)C(Cc3ccccc3)C(O)C(O)C2Cc2ccccc2)c1 (stereo not drawn) [15V]
Ki [3]: < 0.01 µM

CN1CCN(CCCN2C(=O)NC(Cc3ccccc3)C(O)C(O)C2Cc2ccccc2)CC1 (stereo not drawn) [15AP]
Ki [4]: > 1 µM

O=C1N(CCCCCN2CCOCC2)C(Cc2ccccc2)C(O)C(O)C(Cc2ccccc2)N1CCCCCN1CCOCC1 (stereo not drawn) [15FM]
Ki [2]: > 1 µM

O=C1N(Cc2cccc(-c3cc[nH]n3)c2)C(Cc2ccccc2)C(O)C(O)C(Cc2ccccc2)N1Cc1cccc(-c2cc[nH]n2)c1 (stereo not drawn) [Example 15XO]
Ki [4]: < 0.01 µM

O=C1N(CC2CC2)C(Cc2ccccc2)C(O)C(OCc2ccccc2)C(Cc2ccccc2)N1CC1CC1 (stereo not drawn) [Example 7AH]
Ki [1]: > 1 µM

CN(C)CCNC(=O)c1cccc(CN2C(=O)N(Cc3cccc(C(=O)NCCN(C)C)c3)C(Cc3ccccc3)C(O)C(O)C2Cc2ccccc2)c1 (stereo not drawn) [15XV]
Ki [4]: < 0.01 µM

CC(=O)c1ccc(CN2C(=O)N(Cc3ccc(C(C)=O)cc3)C(Cc3ccccc3)C(O)C(O)C2Cc2ccccc2)cc1 (stereo not drawn) [20J]
Ki (Table 2i, read-out: HPLC Ki): 0.01 to 1 µM

CSCCC1C(O)C(O)C(CCSC)N(CC2CC2)C(=O)N1CC1CC1 (stereo not drawn) [Example 16AB]
Ki (Table 2e, read-out: K4 HPLC): > 1 µM

O=C1N(Cc2ccc(CCl)cc2)[C@H](CCc2ccccc2)[C@@H](O)[C@@H](Cc2ccccc2)N1Cc1ccc(CCl)cc1 [Example 8J]
Ki (read-out: Ki (HPLC), Table 1e, cells marked (HPLC)): 0.01 to 1 µM

C=CCCCC1C(O)C(O)C(CCCC=C)N(CC=C)C(=O)N1CC=C (stereo not drawn) [Example 16AR]
Ki (Table 2e, read-out: K4 HPLC): > 1 µM

O=C1N(CC2CC2)C(Cc2ccc3ccccc3c2)C(O)C(O)C(Cc2ccc3ccccc3c2)N1CC1CC1 (stereo not drawn) [16L]
Ki (Table 2e, read-out: K4 HPLC): < 0.01 µM

Cc1cncc(OCc2ccccc2)c1CN1C(=O)N(Cc2c(C)cncc2OCc2ccccc2)C(Cc2ccccc2)C(O)C(O)C1Cc1ccccc1 (stereo not drawn) [Example 14J]
Ki [3]: 0.01 to 1 µM

CSCCC1C(O)C(O)C(CCSC)N(Cc2ccc(CO)cc2)C(=O)N1Cc1ccc(CO)cc1 (stereo not drawn) [16AF]
Ki (Table 2e, read-out: K4 HPLC): > 1 µM

O=C1N(Cc2coc(CO)c2)C(Cc2ccccc2)C(O)C(O)C(Cc2ccccc2)N1Cc1coc(CO)c1 (stereo not drawn) [Example 15FP]
Ki [6]: < 0.01 µM

C=CCN1C(=O)N(CC=C)C(CCCCCCCC)C(O)C(O)C1CCCCCCCC (stereo not drawn) [Example 16AP]
Ki (Table 2e, read-out: K4 HPLC): 0.01 to 1 µM

Nc1ncc(-c2cccc(CN3C(=O)N(Cc4cccc(-c5ccnc(N)n5)c4)C(Cc4ccccc4)C(O)C(O)C3Cc3ccccc3)c2)cn1 (stereo not drawn) [15BB]
Ki [4]: 0.01 to 1 µM

O=C1N(Cc2ccccc2)C(Cc2ccc(OCCO)cc2)C(O)C(O)C(Cc2ccc(OCCO)cc2)N1Cc1ccccc1 (stereo not drawn) [20AM]
Ki (Table 2i, read-out: HPLC Ki): < 0.01 µM
